Assay results: US20230050846A1, “TREATMENT OF HEPATIC AND CARDIOVASCULAR DISORDERS” (LIFESEARCH, priority 2019, published 2023)
Peptide text beside a SMILES is read from it. * marks the point of attachment. Palmitoyl = CCCCCCCCCCCCCCCC(=O)*

Experiments:
[1] = Stability in PBS (LC-HRMS); type: physicochemical; details: 4° C. and 37° C., 4 weeks
Procedure: Peptide of Formula (I) or peptide of Formula (II) were prepared at a concentration of 200 μg/mL in PBS or mixed with EDTA plasma or serum from human (Etablissement Frangais du Sang, EFS) or mouse (C57BL/6J, cardiac puncture). Aliquots from PBS samples (40 μL) were incubated at 4° C. or 37° C. for 0, 1, 2 and 4 weeks. Aliquots from plasma and serum samples (50 μL) were incubated at 4° C. or 37° C. for 0, 1, 2, 4, 6, 12, 24 h.
A mixed solution of peptides of formula (I) and (II) was constituted and serially diluted in PBS to obtain seven standard solutions, ranging from 200 μg/mL to 0.2 μg/mL. In parallel, a mixed solution of labelled peptides of Formula (I) and (II) (Thermo Scientific, Biopolymers Darmstadt, Germany) was prepared in PBS at 100 μg/mL. The mixed solution of labelled peptides (25 μL) was added to 25 μL of standard solutions as well as to PBS, plasma and serum samples. Acetonitrile (150 μL) was added to each sample to precipitate plasma/serum proteins. […] Peptides were analyzed according to their major exact m/z (i 5 ppm, Table 1) and each peptide signal was normalized with that of its labelled internal standard. Peptide concentrations were calculated using calibration curves plotted from standard solutions (linear regression, 1/x weighted, origin excluded).

[2] = tested on: HepG2 cells; test: Cytotoxicity assay (MTT); type: cell-based, human
Procedure: HepG2 cells were seeded in a 96-well plate at a density of 10,000 cells/well in growth medium (DMEM high-glucose, 10% fetal bovine serum). The next day, growth medium was changed and the peptide of formula (I) was added once with ascending dose for 24 h, 48 or 72 h or for 48 h with repeating once in 24 h. Similarly, the peptide of formula (II) was added once with ascending dose for 24 h or 48 h or for 48 h with repeating once in 24 h. Cells were incubated for 4 h with 5 mg/L MTT and 100 μL of DMSO was added in the well. Absorbance was recorded at 570 and 660 nm using the microplate spectrophotometer system (Varioscan flash). Cell viability was calculated by subtracting the 570 nm absorbance to the background measured at 660 nm.

[3] = tested on: primary mouse hepatocytes; test: Steatotic primary mouse hepatocytes, intracellular triglyceride content; type: cell-based; details: 1 μM, 24 h
Procedure: Primary mouse hepatocytes were isolated as described in Example 3 from mice fed western-diet for 11-weeks (Envigo #TD.88137 containing 0.2% cholesterol, 42% kcal from fat, 34% sucrose by weight). Primary mouse hepatocytes were seeded in a 12-well plate at a density of 600,000 cells/well in growth medium and treated for 24 h with apoA-I (10 μg/mL), peptide of formula (I) (1 μM) or peptide of formula (II) (1 μM).
For measurement of intracellular triglyceride content, cells were washed with PBS and scraped in 5% NP-40 lysis buffer and heated for 10 min at 85° C. Triglycerides were then quantified using triglyceride commercial kit (Biolabo #87319). Values were normalized to protein concentration in cell lysates.

| stability in PBS [1] | Compound | cell viability (MTT) ([2]; 0.1 to 50 μM, single dose 24, 48 or 72 h, or multiple doses at 24 and 48 h) | intracellular accumulation of triglycerides vs PBS control [3] | cell viability (MTT) ([2]; 0.1 to 25 μM, single dose 24 or 48 h, or multiple doses at 24 and 48 h) |
| --- | --- | --- | --- | --- |
| stable | Ac-RGAGSIREAGGAFGKREQAEEERYFRAQSRE-NH2 [peptide of formula (I), CH3CO-[SEQ ID NO: 1]-NH2] | no impact | significantly reduced |  |
| stable | CCCCCCCCCCCCCCCC(=O)NCCCC[C@H](NC(=O)[C@H](CCC(=O)O)NC(=O)[C@H](CCCNC(=N)N)NC(=O)[C@H](CO)NC(=O)[C@H](CCC(N)=O)NC(=O)[C@H](C)NC(=O)[C@H](CCCNC(=N)N)NC(=O)[C@H](Cc1ccccc1)NC(=O)[C@H](Cc1ccc(O)cc1)NC(=O)[C@H](CCCNC(=N)N)NC(=O)[C@H](CCC(=O)O)NC(=O)[C@H](CCC(=O)O)NC(=O)[C@H](CCC(=O)O)NC(=O)[C@H](C)NC(=O)[C@H](CCC(N)=O)NC(=O)[C@H](CCC(=O)O)NC(=O)[C@H](CCCNC(=N)N)NC(=O)[C@H](CCCCN)NC(=O)CNC(=O)[C@H](Cc1ccccc1)NC(=O)[C@H](C)NC(=O)CNC(=O)CNC(=O)[C@H](C)NC(=O)[C@H](CCC(=O)O)NC(=O)[C@H](CCCNC(=N)N)NC(=O)[C@@H](NC(=O)[C@H](CO)NC(=O)CNC(=O)[C@H](C)NC(=O)CNC(=O)[C@H](CCCNC(=N)N)NC(C)=O)[C@@H](C)CC)C(N)=O [peptide of formula (II), CH3CO-[SEQ ID NO: 1]-K-[palmitoyl]-NH2] (Ac-RGAGSIREAGGAFGKREQAEEERYFRAQSREK(Palmitoyl)-NH2) |  | significantly reduced | no impact |
